Test results published in patent publication US3953456A, “Carbostyril derivatives and process for preparing the same” (Otsuka Pharmaceutical Co., Ltd., priority 1972, dated 1976).
Like-named read-outs stand apart in the source and are kept apart here.

Tests used:
[1] = tested on: isoprenaline; assay: Antagonistic activity against isoprenaline (β-blockers screening method) in anesthesized dogs: % inhibition of pulse increase and blood pressure reduction; format: in vivo, male mongrel adult dogs; conditions: isoprenaline 0.3 γ/Kg after 5 minutes; for Antagonistic Activity Against Isoprenaline (% Inhibition), Blood Pressure: pressure reduction by isoprenaline alone = 100%; for Antagonistic Activity Against Isoprenaline (% Inhibition), Pulse: pulse increase by isoprenaline alone = 100%
Description: The antagonistic activity of the compounds of this invention against isoprenaline was determined using the β-blockers screening method (C. E. Powell, I. H. Slater : J. Pharmac., 122, 480 (1958 )).
Male mongrel adult dogs, weighing 13 to 20 Kg were anesthesized with 30 mg/Kg of body weight of pentabarbital sodium administered intravenously. Each of the test compounds was then administered to the anesthesized dog at a dosage level of 30γ or 100γ/Kg of body weight from the femoral vein and after 5 minutes isoprenaline was administered to the dog through the femoral vein at a dosage level of 0.3 γ/Kg of body weight. the blood pressure and the pulse (H.R.) were then recorded on a polygraph through a pressure transducer and a tachometer operated by the R wave of the electrocardiograph, respectively, to determine % inhibitory activity of the test compound against the pulse increase and the pressure reduction induced by isoprenaline.
*The pulse increase and the pressure reduction induced by the
administration of isoprenaline alone are referred to as 100%.

[2] = Acute toxicity in rat (LD50, 50% lethal dose); conditions: in vivo, rat (Wister strain)
Description: Also, the acute toxicity in rat (Wister strain) was determined in a standard manner with respect to representative compounds of this invention.

In the case of `CC(C)NCC(O)COc1cccc2[nH]c(=O)ccc12` (centres unmarked) [5-(2-hydroxy-3-isopropylamino)propoxycarbostyril], the “Antagonistic Activity Against Isoprenaline (% Inhibition), Blood Pressure” value ([1]; 30 γ/Kg from the femoral vein) was 89.2%, the “Antagonistic Activity Against Isoprenaline (% Inhibition), Pulse” value ([1]; 30 γ/Kg from the femoral vein) was 87.6% and the LD50 ([2]; iv, i.v., read-out: LD50 i.v.) was 162 mg/kg. The LD50 ([2]; po, p.o., read-out: LD50 p.o.) was 2000 mg/kg.

In the case of `CC(C)(C)NCC(O)COc1cccc2[nH]c(=O)ccc12` (centres unmarked) [5-(2-hydroxy-3-tert-butylamino)propoxycarbostyril], the “Antagonistic Activity Against Isoprenaline (% Inhibition), Blood Pressure” value ([1]; 30 γ/Kg from the femoral vein) was 97.9%, the “Antagonistic Activity Against Isoprenaline (% Inhibition), Pulse” value ([1]; 30 γ/Kg from the femoral vein) was 96.1% and the LD50 ([2]; iv, i.v., read-out: LD50 i.v.) was 136 mg/kg. For the same compound, the LD50 ([2]; po, p.o., read-out: LD50 p.o.) was 1800 mg/kg.

In the case of `CC(C)NCC(O)COc1cccc2ccc(=O)[nH]c12` (centres unmarked) [8-(2-hydroxy-3-isopropylamino)propoxycarbostyril], the “Antagonistic Activity Against Isoprenaline (% Inhibition), Blood Pressure” value ([1]; 100 γ/Kg from the femoral vein) was 66.2%, the “Antagonistic Activity Against Isoprenaline (% Inhibition), Pulse” value ([1]; 100 γ/Kg from the femoral vein) was 57.4% and the LD50 ([2]; iv, i.v., read-out: LD50 i.v.) was 178 mg/kg. For the same compound, the LD50 ([2]; po, p.o., read-out: LD50 p.o.) was 2000 mg/kg.

For `CCC(C)NCC(O)COc1cccc2ccc(=O)[nH]c12` (centres unmarked) [8-(2-hydroxy-3-sec-butylamino)propoxycarbostyril], the “Antagonistic Activity Against Isoprenaline (% Inhibition), Blood Pressure” value ([1]; 100 γ/Kg from the femoral vein) was 51.8%, the “Antagonistic Activity Against Isoprenaline (% Inhibition), Pulse” value ([1]; 100 γ/Kg from the femoral vein) was 42.1% and the LD50 ([2]; iv, i.v., read-out: LD50 i.v.) was 143 mg/kg. For the same compound, the LD50 ([2]; po, p.o., read-out: LD50 p.o.) was 1900 mg/kg.

With `CC(C)(C)NCC(O)COc1cccc2ccc(=O)[nH]c12` (centres unmarked) [8-(2-hydroxy-3-tert-butylamino)propoxycarbostyril] the “Antagonistic Activity Against Isoprenaline (% Inhibition), Blood Pressure” value ([1]; 100 γ/Kg from the femoral vein) was 78.3%, the “Antagonistic Activity Against Isoprenaline (% Inhibition), Pulse” value ([1]; 100 γ/Kg from the femoral vein) was 72.6% and the LD50 ([2]; iv, i.v., read-out: LD50 i.v.) was 148 mg/kg. The LD50 ([2]; po, p.o., read-out: LD50 p.o.) was 1800 mg/kg.
